Results as given in US20080009538A1, “Methods and compositions for the treatment of urinary incontinence” (priority 2005, published 2008).
Counter-ions that a name gives are not always drawn. Like-named read-outs stand apart in the source and are kept apart here.

Key:
Adult cats = assay: Dilute acetic acid bladder model in anesthetized cats (cystometrogram); type: in vivo, cat; conditions: i.v., during 0.5% acetic acid infusion
Procedure: Adult cats (male and female) were anesthetized with α-chloralose (50-75 mg/kg i.v.) A cannula was inserted into the trachea to maintain a clear airway. One catheter was inserted into the carotid artery to measure systemic blood pressure, and another was placed into the radial vein for injecting bicifadine hydrochloride. All doses of bicifadine hydrochloride were based on body weight.
Electromyography electrodes were placed in the periurethral striated muscle. A catheter was inserted through the dome of the bladder and was used to infuse either saline for the control or dilute (0.5%) acetic acid into the test cats. The catheter was also used to record bladder pressure during each voiding cystometrogram. After bladder capacity was established using the saline infusion, cysometrograms were taken after an infusion of dilute acetic acid and changes in bladder capacity were recorded. […] Fluid release during micturition was measured by collecting the fluid in a cylinder attached to a force transducer.
On reaching micturition threshold, acetic acid infusion of the bladder was continued, resulting in rhythmic micturition contractions throughout the infusion period. During this time of rhythmic bladder activity, either vehicle as the control or bicifadine hydrochloride was administered. Five minutes after each administration of bicifadine hydrochloride, the bladder was emptied and another cystometrogram was performed. This procedure was repeated with increasing doses of bicifadine hydrochloride.
Under control conditions, rapid increases in intravessicular pressure were recorded after infusion of 5.3±0.6 ml saline into an initially empty bladder. Bladder capacity was reached after infusion of approximately 10.5 ml of saline. When acetic acid was infused, bladder capacity was reduced by more than half. […] Normal time to contraction following instillation of saline into the bladder is approximately 1286 seconds.

Female rats [1] = assay: Neurogenic overactive bladder in spinal cord transected rats; type: in vivo, rat; conditions: versus no drug or vehicle
Procedure: The spinal cord is transected and the intervening space filled with Gelfoam. The overlying muscle layers and skin are sequentially closed with suture, and the animals are treated with antibiotic (100 mg/kg ampicillin s.c.) Residual urine is expressed prior to returning the animals to their cages, and thereafter 3 times daily until terminal experimentation four weeks later. On the day of the experiment, the animals are anesthetized with isofluorane (4%) and a jugular catheter is inserted for access to the systemic circulation and tunneled subcutaneously to exit through the midscapular region. Via a midline abdominal incision, a catheter with a fire-flared tip is inserted into the dome of the bladder through a small cystotomy and secured by ligation for bladder filling and pressure recording. Electrodes are inserted percutaneously into the external urethral sphincter for electromyography readings. […]
Following a 60-90 minute control period of normal saline infusion (0.100-0.150 ml/min) to collect baseline continuous open cystometric data, the pump is turned off, the bladder is emptied, the pump turned back on, and bladder capacity is estimated by a filling cystometrogram. […] Following the third administration of vehicle control, bladder capacity is again measured through a cystometrogram. […] Bladder capacity is measured as described above at 20 minutes following each subsequent drug treatment.

α1 adrenergic receptor = α1 adrenergic receptor [3H]prazosin binding, rat cerebral cortex preparation; conditions: [3H]prazosin 0.25 nM, 60 min at 22° C., read-out: Inhibition of radioligand binding, affinity (Ki)
Procedure: At the end of 60 min, the assay was terminated by vacuum filtration and the amount of radioactivity deposited on the filter measured by scintillation counting.
(§2) Ki=inhibitory constant defined as IC50/L+KD; IC50=concentration of bicifadine HCl that inhibits 50% of the maximal response; L=concentration of radioligand added; KD, dissociation constant of the radioligand at equilibrium.

[2] = target: T1, norepinephrine transporter protein (Homo sapiens, UniProt P23975); assay: [3H]norepinephrine uptake in HEK 293 cells expressing the transporter; type: cell-based; conditions: recombinant human norepinephrine transporter, 20 nM [3H]norepinephrine, read-out: inhibition of [3H]Norepinephrine uptake (IC50)
T1 construct: expressed in transfected cells; host or cells: HEK 293 cells
T1 sequence (P23975 whole entry): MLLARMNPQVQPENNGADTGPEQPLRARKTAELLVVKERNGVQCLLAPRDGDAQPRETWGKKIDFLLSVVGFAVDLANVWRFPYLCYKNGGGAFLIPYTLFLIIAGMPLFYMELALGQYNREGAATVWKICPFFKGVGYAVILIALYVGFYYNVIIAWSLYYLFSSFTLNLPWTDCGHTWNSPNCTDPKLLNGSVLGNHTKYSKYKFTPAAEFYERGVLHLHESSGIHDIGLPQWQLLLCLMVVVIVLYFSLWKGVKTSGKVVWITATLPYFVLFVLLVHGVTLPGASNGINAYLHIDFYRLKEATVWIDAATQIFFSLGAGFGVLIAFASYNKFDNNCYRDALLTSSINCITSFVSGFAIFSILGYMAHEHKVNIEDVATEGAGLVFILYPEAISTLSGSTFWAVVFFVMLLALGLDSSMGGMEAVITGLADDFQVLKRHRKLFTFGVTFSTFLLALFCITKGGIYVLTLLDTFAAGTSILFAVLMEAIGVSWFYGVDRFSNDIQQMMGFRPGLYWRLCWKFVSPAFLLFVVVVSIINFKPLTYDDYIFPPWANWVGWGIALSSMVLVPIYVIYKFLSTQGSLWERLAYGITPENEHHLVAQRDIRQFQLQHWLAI
Procedure: (§1) The effects bicifadine on [^3H]norepinephrine and [^3H]serotonin uptake were measured in HEK 293 cells expressing the recombinant human forms of the norepinephrine and serotonin transporter proteins, respectively using a modification of the techniques described by Eschleman, et al., (1999). Cells were grown on 150-mm-diameter tissue culture dishes until confluent. Medium was removed from the plates and the cells were washed twice with Ca^2+, Mg^2+-free PBS. Fresh Ca^2+, Mg^2+-free PBS (2.5 ml) was then added to each plate and the plates were placed in a 25° C. water bath for 5 min. The cells were then gently scraped from the plates, and cell clusters were separated by trituration with a pipette for 5 to 10 aspirations and ejections. Aliquots (50 μl) of the suspended cells were then added to assay tubes (in triplicate) containing various concentrations of bicifadine and Krebs-HEPES assay buffer in a final assay volume of 0.5 ml. Following a 10-min pre-incubation in a 25° C. water bath, [^3H]norepinephrine or serotonin (20 nM final concentration) was added, and the assay was incubated for 10 min. The reaction was terminated by filtration through Wallac filtermat A filters presoaked in 0.05% polyethylenimine, using a Tomtec cell harvester. Scintillation fluid was then added to each filtered spot, and radioactivity remaining on the filters was determined by scintillation counting. […]

[3] = Blood pressure in human subjects; type: in vivo
Female rats [4] = assay: Dilute acetic acid model in rats (filling cystometry); type: in vivo, rat; conditions: intraduodenal, 0.25% acetic acid continuous irritation
Source text: Additional animal models for evaluating efficacy of bicifadine as an anti-incontinence drug include a widely accepted rat model predictive of anti-incontinence drug activity in humans. Female rats (250-275 g BW, n=8) are anesthetized with urethane (1.2 g/kg) and a saline-filled catheter is inserted into the proximal duodenum for intraduodenal drug administration. A flared-tipped catheter is inserted into the bladder dome, via a midline lower abdominal incision, for bladder filling and pressure recording, and secured by ligation. Electromyography elctrodes are inserted into the external urethral sphincter percutaneously.
In the control, saline is continuously infused at a rate of about 0.055 ml/min via the bladder filling catheter for about 60 minutes to obtain a baseline of lower urinary tract activity. […] Bladder capacity (ml) is calculated as the flow rate of the bladder filling solution […] multiplied by the elapsed time between commencement of bladder filling and occurrence of bladder contraction (min).
Following the control period, a 0.25% acetic acid solution in saline is infused into the bladder to induce bladder irritation. […] Following injection of the third vehicle control, bladder capacity is again measured using acetic acid to fill the bladder. […]

5-HT2A receptor = target: T2, 5-HT2A receptor (Homo sapiens, UniProt P28223); assay: 5-HT2A receptor [3H]LSD binding screen, recombinant receptors in CHO cells; conditions: [3H]LSD 1.2 nM, recombinant human 5-HT2A in CHO cells, 37° C., 30 min, read-out: inhibition of radioligand binding
T2 construct: expressed in transfected cells; host or cells: CHO cells
T2 sequence (P28223 whole entry): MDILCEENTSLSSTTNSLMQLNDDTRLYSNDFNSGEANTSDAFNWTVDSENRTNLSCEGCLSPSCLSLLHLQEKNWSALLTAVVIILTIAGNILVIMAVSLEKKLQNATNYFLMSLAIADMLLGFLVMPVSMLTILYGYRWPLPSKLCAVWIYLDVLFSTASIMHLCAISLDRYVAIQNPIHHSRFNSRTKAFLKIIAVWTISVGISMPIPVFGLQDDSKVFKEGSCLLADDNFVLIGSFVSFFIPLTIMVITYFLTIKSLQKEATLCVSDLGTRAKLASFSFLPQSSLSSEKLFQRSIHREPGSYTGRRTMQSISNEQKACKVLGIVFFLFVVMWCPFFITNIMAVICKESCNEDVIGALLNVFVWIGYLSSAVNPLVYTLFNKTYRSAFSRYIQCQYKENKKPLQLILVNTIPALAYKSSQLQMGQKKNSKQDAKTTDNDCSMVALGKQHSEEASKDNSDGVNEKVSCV

α2 adrenergic receptor = α2 adrenergic receptor [3H]RX 821002 binding, rat cerebral cortex preparation
Procedure: This assay was conducted by incubating the rat cortex preparation with a 0.5 nM concentration of [^3H]RX 821002 for 30 min at 22° C. in the presence of either 0.1, 0.3, 1, 3, or 10 μM concentrations bicifadine HCl. Unlabelled (−)epinephrine (100 μM) was used to determine nonspecific binding. The assay was terminated by vacuum filtration, and the amount of radiolabeled receptor retained by the filter measured by scintillation counting. […] Recombinant human 5-HT2A receptors expressed in CHO cells were incubated with bicifadine HCl (0.1, 1 or 10 μM) and [^3H]LSD (1.2 nM) at 37° C. for 30 min (Bonhaus 1995). Serotonin (10 μM) was used to determine nonspecific binding.
as §2

[5] = target: T3, serotonin transporter protein (Homo sapiens, UniProt P31645); assay: [3H]serotonin uptake in HEK 293 cells expressing the transporter; type: cell-based; conditions: recombinant human serotonin transporter, 20 nM [3H]serotonin, read-out: inhibition of [3H]Serotonin uptake (IC50)
T3 construct: expressed in transfected cells; host or cells: HEK 293 cells
T3 sequence (P31645 whole entry): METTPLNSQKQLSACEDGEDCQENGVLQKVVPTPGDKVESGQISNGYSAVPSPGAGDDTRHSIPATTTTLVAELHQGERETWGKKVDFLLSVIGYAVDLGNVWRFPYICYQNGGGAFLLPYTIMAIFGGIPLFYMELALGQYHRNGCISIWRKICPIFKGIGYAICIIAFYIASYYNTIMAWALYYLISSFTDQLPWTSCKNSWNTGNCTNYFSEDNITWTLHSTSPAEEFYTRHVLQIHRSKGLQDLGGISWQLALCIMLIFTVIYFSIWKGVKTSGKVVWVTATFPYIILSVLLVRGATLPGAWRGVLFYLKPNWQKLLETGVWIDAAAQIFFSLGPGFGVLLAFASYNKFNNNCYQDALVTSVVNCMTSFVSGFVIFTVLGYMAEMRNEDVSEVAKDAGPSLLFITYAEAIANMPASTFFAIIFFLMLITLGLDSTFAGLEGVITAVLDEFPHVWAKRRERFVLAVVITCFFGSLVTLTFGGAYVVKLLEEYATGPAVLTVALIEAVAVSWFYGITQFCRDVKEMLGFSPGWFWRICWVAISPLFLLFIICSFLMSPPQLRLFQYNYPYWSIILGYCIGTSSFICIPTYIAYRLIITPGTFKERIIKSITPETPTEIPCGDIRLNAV
Procedure: as §1

Adult female guinea pigs = assay: Urethral function in guinea pigs (external urethral sphincter EMG); type: in vivo, guinea pig; conditions: intravenous, normal bladder filling, versus no drug or vehicle
Source text: Yet another animal model for evaluating efficacy of bicifadine as an anti-incontinence drug is a widely accepted guinea pig model, also predictive of anti-incontinence drug activity in humans. Adult female guinea pigs, weighing 620-707 g, are initially anesthetized with halothane and maintained with urethane. A cannula is inserted into the trachea, a jugular vein and a carotid artery for respiratory ventilation, injection of the test compound and monitoring of the blood pressure, respectively. A midline laporatomy is performed to expose the urinary bladder and a cystometry tube is inserted through a small incision in the dome of the bladder. The abdominal wound is closed tightly around the externalized cystometry tube, which is connected to an infusion pump and pressure transducer, for filling the bladder and recording intravesical pressure. Electromyographic electrodes are inserted into the striated muscles of the external urethral sphincter.
The bladder is filled at a rate of 150 μl/min^−1 with saline until initiation of a micturition reflex. […]
The bladder is then filed to 75% of the threshold volume with saline and weights are positioned on the ventral surface of the abdomen of the animal just rostral to the position of the bladder. […] Electromyographic activity and intravesical pressure are recorded while weights are applied to the abdomen. […]

Row | Structure (SMILES) | bladder activity (Adult cats) | bladder capacity (Adult cats) | time to contraction (latency to bladder contraction) (Adult cats) | bladder capacity (Female rats [1]) | Ki (α1 adrenergic receptor) | IC50 [2] | alterations in blood pressure [3] | bladder capacity (Female rats [4]) | inhibition at 10 µM (5-HT2A receptor) | Ki (α2 adrenergic receptor; read-out: Inhibition of radioligand binding, affinity (Ki), [3H]RX 821002 0.5 nM, 30 min at 22° C., hydrochloride) | Ki (α2 adrenergic receptor; read-out: Inhibition of radioligand binding, affinity (Ki), [3H]RX 821002 0.5 nM, 30 min at 22° C., listed as bicifadine, hydrochloride) | IC50 [5] | electromyographic activity of external urethral sphincter (Adult female guinea pigs)
1 | Cc1ccc(C23CNCC2C3)cc1.Cl (single isomer, unassigned; (+)) [(+)-bicifadine HCl, (+)-1-(p-Tolyl)-3-azabicyclo[3.1.0]hexane hydrochloride] | pronounced inhibition of bladder activity | increased bladder capacity to near control conditions | increased the time to contraction |  |  |  |  |  |  |  |  |  | 
2 | Cc1ccc([C@]23CNC[C@H]2C3)cc1 (racemic) [Bicifadine HCl, (±)-1-(4-methylphenyl)-3-azabicyclo[3.1.0]hexane hydrochloride] | pronounced inhibition of bladder activity | increased bladder capacity to near control conditions | increased the time to contraction | increase in bladder capacity | 1000 nM | 54.7 nM | did not cause significant alterations in blood pressure | increase in bladder capacity | 82% | 610 nM | 600 nM | 117 nM | increase in electromyographic activity
